pIC50: −log10 of the molar value. Values joined by “and” are separate entries in the source; they are usually repeats but may differ in a detail not shown here. Equal entries are not always repeated.
Tests used:
[1] = target: T1, Sterol O-acyltransferase 1 (Rattus norvegicus) (UniProt O70536); assay: Chronic in vivo activity was measured by the total cholesterol concentration levels in cholesterol fed rats; assay type: functional, organism-based
T1 sequence (whole entry): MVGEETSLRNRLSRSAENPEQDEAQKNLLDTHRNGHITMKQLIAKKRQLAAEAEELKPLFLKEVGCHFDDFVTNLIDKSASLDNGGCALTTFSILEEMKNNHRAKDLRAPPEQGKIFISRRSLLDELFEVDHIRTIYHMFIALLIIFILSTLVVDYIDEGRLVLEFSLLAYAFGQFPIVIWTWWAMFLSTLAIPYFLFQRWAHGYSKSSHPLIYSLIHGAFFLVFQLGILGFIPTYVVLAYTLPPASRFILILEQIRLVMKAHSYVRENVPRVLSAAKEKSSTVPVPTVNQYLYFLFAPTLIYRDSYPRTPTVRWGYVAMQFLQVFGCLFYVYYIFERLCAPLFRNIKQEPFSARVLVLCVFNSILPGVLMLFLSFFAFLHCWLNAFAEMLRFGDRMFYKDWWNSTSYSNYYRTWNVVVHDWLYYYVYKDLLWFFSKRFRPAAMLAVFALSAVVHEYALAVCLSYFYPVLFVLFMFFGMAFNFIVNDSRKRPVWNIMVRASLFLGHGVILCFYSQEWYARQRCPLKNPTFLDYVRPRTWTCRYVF

[2] = target: T1, Sterol O-acyltransferase 1 (Rattus norvegicus); assay: Chronic in vivo activity was measured by the concentration of high density lipoproteins (HDL) in cholesterol fed rats; assay type: functional, organism-based
[3] = target: T1, Sterol O-acyltransferase 1 (Rattus norvegicus); assay: Acute in vivo activity was measured by the total plasma cholesterol concentration levels(TC) at dose 3 mg/kg; assay type: functional, organism-based; set-up: dose 3 mg/kg
[4] = target: T2, Sterol O-acyltransferase 1 (Rattus norvegicus, UniProt O70536); assay: In vitro inhibitory activity against acyl coenzyme A:cholesterol acyltransferase 1 in microsomes of rat liver
T2 sequence (O70536 whole entry): T1 sequence (whole entry)

[5] = system: Rattus norvegicus; assay: Acute in vivo activity measured by total plasma cholesterol concentration levels (TC) at 30 mg/kg dose; assay type: functional

SMILES | Delta TC [1] | Delta HDL [2] | Delta TC [3] | pIC50 [4] | Delta TC [5] [%]
COc1cc(C(C)(C)C)c(OC(=O)NS(=O)(=O)Nc2c(C(C)C)cccc2C(C)C)c(C(C)(C)C)c1 | -47% | 86% | -29% | 4.82 | –
CCCCCCCCN(CCCCCCCC)S(=O)(=O)NC(=O)Nc1c(C(C)C)cccc1C(C)C | -56% | 150% | -38% | 5.72 | -53
CCCCCCOS(=O)(=O)NC(=O)Oc1c(C(C)(C)C)cc(C)cc1C(C)(C)C | – | – | -14% | 4.02 | -56
CCCCCCCCCCCCOS(=O)(=O)NC(=O)Nc1c(C(C)C)cccc1C(C)C | -55% and -52% | – | -34% and -53% | – | –
CC(C)c1cc(C(C)C)c(OC(=O)NS(=O)(=O)Oc2c(C(C)C)cc(C(C)C)cc2C(C)C)c(C(C)C)c1 | -62% | 129% | -32% | 4.66 | -65
CC(C)c1cccc(C(C)C)c1OC(=O)NS(=O)(=O)N(Cc1ccccc1)C(C)C | -69% | 114% | -59% | 4.92 | –
CCC(C)N(C(C)CC)S(=O)(=O)NC(=O)Nc1c(C(C)C)cccc1C(C)C (stereo unspecified) | -62% | 86% | -65% | 7.00 | –
CCCCCN(CCCCC)S(=O)(=O)NC(=O)Oc1c(C(C)C)cccc1C(C)C | -73% | 166% | -66% | 5.89 | –
CCCCCCCCCCCCCCN(C)S(=O)(=O)NC(=O)Nc1c(C(C)C)cccc1C(C)C | -51% | 19% | -65% | 6.48 | –
CC(C)c1cccc(C(C)C)c1NC(=O)NS(=O)(=O)N(C1CCCCC1)C1CCCCC1 | -35% | 92% | -60% | 6.64 | –
CCCCCCCCN(C)S(=O)(=O)NC(=O)Nc1c(C(C)C)cccc1C(C)C | -64% | 123% | -57% | 5.42 | –
CC(C)c1cccc(C(C)C)c1OC(=O)N(C)S(=O)(=O)Oc1c(C(C)C)cccc1C(C)C | – | – | -18% | 4.30 | -64
CC(C)c1cc(F)cc(C(C)C)c1OC(=O)NS(=O)(=O)Oc1c(C(C)C)cccc1C(C)C | -52% | 143% | – | < 4.30 | -72
CCCCCCN(CCCCCC)S(=O)(=O)NC(=O)Oc1c(C(C)C)cccc1C(C)C | -75% | 144% | -74% | 5.38 | –
CCCCCCCCCCCCOC(=O)NS(=O)(=O)Oc1c(C(C)C)cccc1C(C)C | – | – | 1% | 4.89 | -62
CCCCCCOS(=O)(=O)NC(=O)Oc1c(C(C)C)cccc1C(C)C | – | – | -18% | 4.40 | -52
CC(C)c1cccc(C(C)C)c1OS(=O)(=O)NC(=O)OC1[C@@H](C(C)C)CCC[C@H]1C(C)C (stereo partly specified) | – | – | -29% | 5.44 | -70
CCCCN(CCCC)S(=O)(=O)NC(=O)Oc1c(C(C)C)cccc1C(C)C | -69% and -72% | 109% and 113% | -64% and -47% | – | –
COc1cc(C(C)(C)C)c(OC(=O)NS(=O)(=O)Oc2c(C(C)C)cccc2C(C)C)c(C(C)(C)C)c1 | -62% and -76% | – | -42% and -58% | – | –
CC(C)c1cccc(C(C)C)c1OC(=O)NS(=O)(=O)N(C(C)C)C1CCCCC1 | -71% | 188% | -49% | 5.29 | –

SMILES | Delta TC [1] | Delta HDL [2] | Delta TC [3] | pIC50 [4] | Delta TC [5] [%]
CC(C)CCN(CCC(C)C)S(=O)(=O)NC(=O)Nc1c(C(C)C)cccc1C(C)C | -68% | 133% | -66% | 6.38 | –
CC(C)c1cccc(C(C)C)c1OC(=O)NS(=O)(=O)Oc1c(C(C)C)cccc1C(C)C | -64% and -68% | 233% and 345% | -59% and -54% | – | –
CCCCCN(CCCCC)S(=O)(=O)NC(=O)Nc1c(C(C)C)cccc1C(C)C | -67% | 193% | -68% | 6.38 | –
CCCCCCCCN(CCCCCCCC)S(=O)(=O)NC(=O)Oc1c(C(C)C)cccc1C(C)C | -80% | 156% | -67% | 4.24 | –
CC(C)c1cccc(C(C)C)c1NC(=O)NS(=O)(=O)N(CC1CCCO1)CC1CCCO1 (stereo unspecified) | -56% | 123% | -45% | 5.77 | –
CC(C)c1cccc(C(C)C)c1OC(=O)NS(=O)(=O)Oc1c(C(C)(C)C)cccc1C(C)(C)C | – | – | -46% | 4.30 | -55
CC(C)c1cccc(C(C)C)c1NC(=O)NS(=O)(=O)N(C(C)C)C1CCCCC1 | -63% | 94% | -60% | 6.44 | –
CCCCCCC(C)OS(=O)(=O)NC(=O)Nc1c(C(C)C)cccc1C(C)C (stereo unspecified) | – | – | 10% | 4.46 | -51
CC(C)c1cccc(C(C)C)c1OC(=O)NS(=O)(=O)N(c1ccccc1)c1ccccc1 | -37% | 320% | -46% | 4.24 | –
Cc1cccc(C)c1OS(=O)(=O)NC(=O)Oc1c(C(C)C)cccc1C(C)C | – | – | -37% | < 4.30 | -58
CC(C)CN(CC(C)C)S(=O)(=O)NC(=O)Nc1c(C(C)C)cccc1C(C)C | -62% | 122% | -61% | 6.38 | –
CC(C)c1cccc(C(C)C)c1NC(=O)NS(=O)(=O)N(C)CCc1ccccc1 | -45% | 43% | -38% | 5.77 | –
Cc1cc(C(C)(C)C)c(OC(=O)NS(=O)(=O)Oc2ccccc2)c(C(C)(C)C)c1 | – | – | -15% | 4.05 | -65
CCCCCCN(CCCCCC)S(=O)(=O)NC(=O)Nc1c(C(C)C)cccc1C(C)C | -69% | 207% | -63% | 6.29 | –
CC(C)c1cccc(C(C)C)c1OC(=O)NS(=O)(=O)N(C(C)C)C(C)C | -59% | 82% | -65% | 4.82 | –
CCCCCCCCCCCCCCCCOS(=O)(=O)NC(=O)Oc1c(C(C)C)cccc1C(C)C | – | – | -42% | 4.99 | -60
CC(C)c1cccc(C(C)C)c1OS(=O)(=O)NC(=O)Oc1c(-c2ccccc2)cccc1-c1ccccc1 | -38% | 21% | – | 4.92 | -46
CCCCCCCCCCCCCCCCCCOS(=O)(=O)NC(=O)Nc1c(C(C)C)cccc1C(C)C | -38% | 30% | -5% | 4.85 | –
CC(C)c1cccc(C(C)C)c1NC(=O)NS(=O)(=O)N(c1ccccc1)c1ccccc1 | -36% | 170% | -27% | 4.80 | –
CCCCCCCCN(C)S(=O)(=O)NC(=O)Oc1c(C(C)C)cccc1C(C)C | -64% | 88% | -57% | 4.66 | –

— ChEMBL document CHEMBL1129522, “Inhibitors of acyl-CoA:cholesterol O-acyltransferase. 17. Structure-activity relationships of several series of compounds derived from N-chlorosulfonyl isocyanate” (J Med Chem, 1996)
